Assay results: patent publication US11479604B2, “Immunomodulatory peptides and methods for modulating the immune system in a subject” (Recepta Biopharma S.A., priority 2017, dated 2022)

What was measured:
[1] = tested on: CD11c+, MHC II+ bone marrow DCs; experiment: Marker expression of bone marrow DCs with or without Poly I:C (flow cytometry); format: cell-based, C57Bl6 mice; details: 60 h
Description: DCs were obtained from the bone marrow of 6 to 8-week-old C57Bl6 mice. Briefly, femora and tibiae from mice were removed and stripped of muscles and tendons; both bone ends were cut and bone marrow was flushed out with RPMI 1640 medium using a 21-gauge needle and syringe. Cell clusters were dissociated by passing through a cell strainer and 0.45 M ammonium chloride was added for red cell lysis. After washing the cell suspension twice in RPMI 1640, 10×10^6 bone marrow cells per well were cultured in non-treated tissue-culture 6-well plates with 4 ml of complete medium (RPMI 1640 supplemented with 2 mM glutamine, 10,000 U/mL penicillin, 10 mg/mL streptomycin, 50 μM 2-mercaptoethanol, 10% heat-inactivated fetal calf serum with GM-CSF (50 ng/ml). Half of the medium was removed on day 2 and new medium supplemented with GM-CSF (100 ng/ml) and warmed at 37° C. was added. The culture medium was entirely discarded on day 3 and replaced by fresh warmed medium with GM-CSF (50 ng/ml). On day 6, non-adherent cells in the culture supernatant and loosely adherent cells harvested by gentle washing with PBS were pooled and used as the starting cell source for the experiments.
For murine cell analysis, these were stained in ice-cold PBS containing BSA (0.5%) and EDTA (2 mM) using appropriate antibody-fluorophore conjugates. Multiparameter analysis was performed on a BD FACSCanto II analyzer (BD Biosciences) and analyzed with FlowJo software (Tree Star). The following antibodies were used: anti-MHC Class II, anti-CD11c, anti-CD8a, anti-CD3e, anti-CD4, anti-CD86, anti-CD40, anti-CD80, Prior to acquisition, cells were resuspended in PBS/BSA 0.5%/EDTA (2 mM).
DCs were centrifuged and washed once with MACS buffer. Cells (10^6) were resuspended in 45 μl of buffer and 5 μl of antibodies/fluorophore, CD11c APC, MHC II PE, CD80 FITC, CD86 VioBlue and CD40 PE. The samples were acquired in BD FACS Canto II using the FacsDiva software. The data were analyzed by using the FlowJo software.

[2] = tested on: T lymphocytes of lungs, spleen and lymph nodes; experiment: Flow cytometry of Treg, T-CD4+ and T-CD8+ cells after prophylactic DC protocol; format: in vivo, mice
Description: On day 14, mice were inoculated i.v. with B16F10.Nex2 melanoma tumor cells and on day 29, lungs, spleen and cervical and axillary lymph nodes were examined for CD3+ cells, and the proportion of T-CD4+ and T-CD8+ cells.
The lungs were incubated with 2 mg/ml of collagenase for 40 min at 37° C. before maceration. The cell suspension was incubated with cold hemolytic buffer for 1 min and then centrifuged. The pellet was suspended with RPMI medium and counted. 1×10^6 Cells of each group were processed and stained using the Treg Detection Kit (Miltenyi Biotec, Cambridge, USA). Lymphocytes were characterized using anti-CD4 (FITC), anti-CD25 (PE) and anti-Foxp3 (APC). Samples were analyzed by flow cytometry using FACSCantoII (Becton Dickinson, San Jose, Calif., USA). Acquired data were analyzed using the FlowJo V10 (TreeStar Inc., Ashland, Oreg., USA). The percentages of Foxp3^+ in CD4^+CD25^+ lymphocytes are indicated.
The cell suspension was incubated with cold hemolytic buffer for 1 min and then centrifuged. The pellet was suspended with RPMI medium and counted. 1×10^6 Cells of each group were stained with anti-CD3 (PE) and anti-CD4 (FITC) or anti-CD3 (PE) and anti-CD8 (FITC). All antibodies used were purchase from Miltenyi Biotec, Cambridge, USA. Samples were analyzed by flow cytometry using FACSCantoII (Becton Dickinson, San Jose, Calif., USA). Acquired data were analyzed using the FlowJo V10 (TreeStar Inc., Ashland, Oreg., USA). The percentages of CD4^+ or CD8^+ in CD3^+ lymphocytes are indicated.

[3] = tested on: mo-DC obtained from cancer patients' monocytes; experiment: Allogeneic T cell proliferation induced by cancer patients' mo-DC; format: cell-based, human
Description: Mo-DC were co-cultured with allogeneic lymphocytes (DC:Ly=1:30) to evaluate their ability to induce lymphocyte proliferation. This was measured by carboxyfluorescein succinimidyl ester (CFSE—Molecular Probes) dilution and activation measured by correlation among CD4/CD25 and Foxp3 expression (Clavijo-Salomon et al., 2016).
Since it is well known that mo-DC from cancer patients can be functionally biased, but are not always so, the patients were separated into two groups, according to their mo-DC ability to induce allogeneic T cell proliferation. Patients whose mo-DC induced less than 35% of the phytohemagglutinin A (PHA)-induced response constituted one group (“defective”) and those whose mo-DC induced a response higher than 35% of the PHA response, the other (“normal”).

[4] = tested on: human monocyte-derived dendritic cells (mo-DC); experiment: Membrane phenotype of human mo-DC from healthy donors; format: cell-based
Description: Peripheral blood mononuclear cells (PBMCs) were isolated by centrifugation over Ficoll-Paque Plus (GE Healthcare). After a 2 h-incubation in plastic 6-well plates, non-adherent cells were removed from culture and adherent cells (monocytes) were cultivated for 7 days in RPMI-1640 culture medium (Gibco, Grand Island, N.Y., USA), supplemented with 10% FCS (Gibco) plus antibiotic-antimycotic (Gibco) and in the presence of GM-CSF (50 ng/ml—Peprotech, Mexico) and IL-4 (50 ng/ml—Peprotech). At day 5 of culture TNF-α (50 ng/ml; Peprotech, Mexico) was added for mo-DC maturation.
Human cells were analyzed in a similar manner, but staining was performed in BSA-PBS, without EDTA. Antibodies against CD11c, CD14, CD80, CD83, CD86, HLA-ABC, HLA-DR, CCR7, PD-L1, conjugated with different fluorochromes and live/dead labeling (Molecular Probes, Oregon, USA) were used. Acquisition was performed in a FACSCanto II analyzer (BD Biosciences) and analyzed with the FlowJo Software X.10.07r2 (Tree Star).

[5] = 100 μg/ml peptide + 12.5 μg/ml Poly I:C
[6] = prophylactic protocol with peptide-stimulated DCs

[CARGETARATFAYWGQGC], NH2 (C-C) [Rb9]
CD40 expression over Poly I:C [1, 5]: stimulated CD40 over Poly I:C much like Rb9
CD86 expression over Poly I:C [1, 5]: stimulated CD86 over Poly I:C
expression of CD80 ([1]; 100 μg/ml peptide, with or without Poly I:C): similar
T-CD4+ and T-CD8+ effector cells [2, 6]: increased T-CD4+ and T-CD8+ effector cells
Tregs (FoxP3+) [2, 6]: reduced Tregs
proportion of T-CD8+ to T-CD4+ cells ([2]; spleen and lymph nodes (except lungs), day 29, DCs stimulated by peptide): T-CD8+ cells greatly predominated over T-CD4+ effector cells
ability of "defective" mo-DC to induce allogeneic T cell proliferation [3]: enhanced the ability
lympho-stimulatory activity of "normal" mo-DC [3]: inhibited the lympho-stimulatory activity
expression of activation markers on immature mo-DC ([4]; 50 μg/mL at day 5, analysis 2 days later): enhanced the expression of activation markers
expression of maturation markers on mo-DC with TNF-alpha ([4]; 50 μg/mL peptide + TNF-alpha 50 ng/mL at day 5): further enhancing the expression of maturation markers
